Test results reported in patent US9127044B2, “Cyclic depsipeptides” (NOVARTIS AG, priority 2007, dated 2015).
Read-outs that look alike come from different tables or passages of the source. *1 amine or outer side, *2 acyl side, *3 side chain or, on linkers, in order; H or OH if unused. Where a SMILES comes first, the peptide text is derived from it. Bridges are numbered along the chain shown (N, C = ends). [ ]: non-standard residue; d: D form. The star is where a group is joined. ξ: configuration not given here. X1 = O=C([C@@H]1CC[C@H](O)N1[*:1])[*:2]; NMeY = CN[C@@H](Cc1ccc(O)cc1)C(=O)O; Ile(3ξ) = CCC(C)[C@H](N)C(=O)O; Isovaleryl = CC(C)CC(=O)*; Isobutyryl = CC(C)C(=O)*

Legend:
human kallikrein 7 = human kallikrein 7 (Homo sapiens, UniProt P49862); test: Kallikrein-7 inhibitory activity in vitro (fluorescence-quenched substrate); format: biochemical
Protocol: (§1) IC50 for human kallikrein can be measured using the fluorescence-quenched substrate Ac-Glu-Asp(EDANS)-Lys-Pro-Ale-Leu-Phe^Arg-Leu-Gly-Lys(DABCYL)-Glu-NH2 (where ^ indicates the scissile bond, identified by MS analysis) which can be purchased from Biosyntan (Berlin, Germany). Enzymatic reactions are conducted in 50 mM sodium citrate buffer at pH 5.6 containing 150 mM NaCl and 0.05% (w/v) CHAPS. For the determination of IC50 values the assay is performed at room temperature in 384-well plates. All final assay volumes are 30 μl. Test compounds are dissolved in 90% (v/v) DMSO/water and diluted in water (containing 0.05% (w/v) CHAPS) to 3-times the desired assay concentration. The 11 final compound concentrations are: 0.3 nM, 1 nM, 3 nM, 10 nM, 30 nM, 100 nM, 300 nM, 1 μM, 3 μM, 10 μM and 30 μM. For each assay, 10 μl water/CHAPS (±test compound) are added per well, followed by 10 μl protease solution (diluted with 1.5× assay buffer). The protease concentration in final assay solution is 0.2 nM (according to the enzyme concentrations determined by the Bradford method). After 1 hour of incubation at room temperature, the reaction is started by addition of 10 μl substrate solution (substrate dissolved in 1.5× assay buffer, final concentration is 2 μM). […] The IC50 value is calculated from the plot of percentage of inhibition vs. inhibitor concentration using non-linear regression analysis software (XLfit, Vers. 4.0; ID Business Solution Ltd., Guildford, Surrey, UK).
The fluorescence-quenched substrate Ac-Glu-Asp(EDANS)-Lys-Pro-Ale-Leu-Phe^Arg-Leu-Gly-Lys(DABCYL)-Glu-NH2 (where ^ indicates the scissile bond, identified by MS analysis) is purchased from Biosyntan (Berlin, Germany) and kept as a 5 mM stock solution in DMSO at −20° C. All other chemicals are of analytical grade.
Enzymatic reactions are conducted in 50 mM sodium citrate buffer at pH 5.6 containing 150 mM NaCl and 0.05% (w/v) CHAPS.
All protein and peptide containing solutions are handled in siliconized tubes (Life Systems Design, Merenschwand, Switzerland). The compound solutions as well as the enzyme and the substrate solutions are transferred to the 384-well plates (black Cliniplate; cat. no. 95040020 Labsystems Oy, Finland) by means of a CyBi-Well 96-channel pipettor (CyBio AG, Jena, Germany).
(§2) For fluorescence intensity (FI) measurements an Ultra Evolution reader (TECAN, Maennedorf, Switzerland) is used. The instrument is equipped with a combination of a 350 nm (20 nm bandwidth) and a 500 nm (25 nm bandwidth) bandpass filter for fluorescence excitation and emission acquisition, respectively. To increase the signal:background ratio, an appropriate dichroic mirror is employed. The optical filters and the dichroic mirror are purchased from TECAN. The fluorophores in each well are excited by three flashes per measurement.
as §1, with “For” for “IC50 for human kallikrein can be measured using the fluorescence-quenched substrate Ac-Glu-Asp(EDANS)-Lys-Pro-Ale-Leu-Phe^Arg-Leu-Gly-Lys(DABCYL)-Glu-NH2 (where ^ indicates the scissile bond, identified by MS analysis) which can be purchased from Biosyntan (Berlin, Germany). Enzymatic reactions are conducted in 50 mM sodium citrate buffer at pH 5.6 containing 150 mM NaCl and 0.05% (w/v) CHAPS. For”, “volumes were” for “volumes are”, “concentration was” for “concentration is”

[1] = biological target: T1, Human neutrophil elastase (Homo sapiens, UniProt P08246); test: HNE inhibitory activity in vitro (fluorescence-quenched substrate); format: biochemical
T1 construct: purchased Elastin Products Company, Inc. (EPC, Owensville, USA) SE563
T1 sequence (P08246 30-267): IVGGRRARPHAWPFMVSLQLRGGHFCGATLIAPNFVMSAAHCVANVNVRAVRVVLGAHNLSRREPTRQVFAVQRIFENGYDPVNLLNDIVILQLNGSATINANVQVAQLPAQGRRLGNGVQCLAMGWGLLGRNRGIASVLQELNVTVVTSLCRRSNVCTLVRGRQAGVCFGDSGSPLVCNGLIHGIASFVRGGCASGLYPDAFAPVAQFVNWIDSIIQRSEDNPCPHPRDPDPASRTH
Protocol: Human neutrophil elastase (cat. no. SE563) is purchased from Elastin Products Company, Inc. (EPC, Owensville, USA). The dry powder (purity >95% stated by the supplier) was dissolved in 20 mM sodium acetate buffer, pH 5.0, 50% (v/v) glycerol, and frozen at −80° C. in aliquots.
The fluorescence-quenched substrate (DABCYL-Ser-Glu-Val^Asn-Leu-Asp-Ala-Glu-Phe-EDANS, where ^ indicates the scissile bond, identified by MS analysis) was purchased from Bachem AG (Bubendorf, Switzerland), and kept as a 5 mM stock solution in DMSO at −20° C. All other chemicals were of analytical grade.
Enzymatic reactions were conducted in 100 mM Tris/HCl buffer at pH 7.5, containing 500 mM NaCl, and 0.05% (w/v) CHAPS.
All protein and peptide containing solutions are handled in siliconized tubes (Life Systems Design, Merenschwand, Switzerland).
The compound solutions as well as the enzyme and the substrate solutions are transferred to the 384-well plates (black Cliniplate; cat. no. 95040020 Labsystems Oy, Finland) by means of a CyBi-Well 96-channel pipettor (CyBio AG, Jena, Germany).
as §2

[2] = Table 11, read-out: hKallikrein7 IC 50
[3] = Table 11, read-out: human neutrophile elastase IC 50

Chain of human kallikrein 7 (P49862 30-253): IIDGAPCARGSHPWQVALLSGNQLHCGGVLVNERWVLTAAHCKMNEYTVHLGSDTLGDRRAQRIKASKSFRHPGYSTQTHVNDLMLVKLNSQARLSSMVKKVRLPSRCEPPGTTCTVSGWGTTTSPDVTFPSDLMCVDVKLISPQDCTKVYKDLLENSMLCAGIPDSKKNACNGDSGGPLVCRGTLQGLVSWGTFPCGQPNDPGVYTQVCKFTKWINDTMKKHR

IC50 (human kallikrein 7; [2])	IC50 [1, 3]	IC50 (human kallikrein 7; read-out: IC50 for human kallikrein 7)	Compound	IC50 (human kallikrein 7; hKallikrein7 IC 50, Table 11)	IC50 [1]	IC50 (human kallikrein 7; hKallikrein7 IC50, Table 10)
8.5 nM	3.5 nM	–	CCCOC1CCC2NC(=O)C(CC(C)C)NC(=O)C(NC(=O)C(CCC(N)=O)NC(=O)C(C)C)C(C)OC(=O)C(C(C)CC)NC(=O)C(Cc3ccc(OCc4ccccc4)cc3)N(C)C(=O)C(C(C)CC)N1C2=O (stereo not shown) [example 39]	–	–	–
6.5 nM	2.5 nM	–	C=CCOc1ccc(CC2C(=O)NC(C(C)CC)C(=O)OC(C)C(NC(=O)C(CCC(N)=O)NC(=O)C(C)C)C(=O)NC(CC(C)C)C(=O)NC3CCC(OCCC)N(C3=O)C(C(C)CC)C(=O)N2C)cc1 (stereo not shown) [example 40]	–	–	–
2 nM	1 nM	–	C#CCOc1ccc(CC2C(=O)NC(C(C)CC)C(=O)OC(C)C(NC(=O)C(CCC(N)=O)NC(=O)C(C)C)C(=O)NC(CC(C)C)C(=O)NC3CCC(OCCC)N(C3=O)C(C(C)CC)C(=O)N2C)cc1 (stereo not shown) [example 41]	–	–	–
1 nM	1 nM	–	CCCOC1CCC2NC(=O)C(CC(C)C)NC(=O)C(NC(=O)C(CCC(N)=O)NC(=O)C(C)C)C(C)OC(=O)C(C(C)CC)NC(=O)C(Cc3ccc(OCc4cc(C)n(C)n4)cc3)N(C)C(=O)C(C(C)CC)N1C2=O (stereo not shown) [example 42]	–	–	–
3.5 nM	9 nM	–	CCC(C)[C@@H]1NC(=O)[C@H](Cc2ccc(OCC(=O)NCCOCCOCC(=O)OC(C)(C)C)cc2)N(C)C(=O)[C@H](C(C)CC)N2CCCC(NC(=O)[C@H](CC(C)C)NC(=O)[C@@H](NC(=O)[C@H](CCC(N)=O)NC(=O)C(C)C)[C@@H](C)OC1=O)C2=O (stereo partly shown) [example 44]	–	–	–
2 nM	3 nM	–	CCCOC1CCC2NC(=O)C(CC(C)C)NC(=O)C(NC(=O)C(CCC(N)=O)NC(=O)C(C)C)C(C)OC(=O)C(C(C)CC)NC(=O)C(Cc3ccc(OCc4cn(CCOCCOCCN=[N+]=[N-])nn4)cc3)N(C)C(=O)C(C(C)CC)N1C2=O (stereo not shown) [example 45]	–	–	–
1 nM	10 nM	–	CC(C)CC(=O)N[C@@H](CCC(N)=O)C(=O)N[C@@H]1C(=O)N[C@@H](CC(C)C)C(=O)N2CCC[C@@H]2C(=O)N[C@@H](Cc2ccccc2)C(=O)N(C)[C@@H](Cc2ccc(O)cc2)C(=O)N[C@@H](C(C)C)C(=O)O[C@@H]1C [formula IX] (Isovaleryl-QTL[dP]F[NMeY]V; ester 2-C)	–	–	–

Second part, the compound before the results:

Compound	IC50 (human kallikrein 7; [2])	IC50 [1, 3]	IC50 (human kallikrein 7; read-out: IC50 for human kallikrein 7)	IC50 (human kallikrein 7; hKallikrein7 IC 50, Table 11)	IC50 [1]	IC50 (human kallikrein 7; hKallikrein7 IC50, Table 10)
CCCOC1CCC2NC(=O)C(CC(C)C)NC(=O)C(NC(=O)C(CCC(N)=O)NC(=O)C(C)C)C(C)OC(=O)C(C(C)CC)NC(=O)C(Cc3ccc(OCC=Cc4ccccc4)cc3)N(C)C(=O)C(C(C)CC)N1C2=O (stereo not shown) [example 32]	100 nM	30 nM	–	–	–	–
CCC(C)[C@@H]1NC(=O)[C@H](Cc2ccc(OCC(=O)OC(C)(C)C)cc2)N(C)C(=O)[C@H](C(C)CC)N2CCCC(NC(=O)[C@H](CC(C)C)NC(=O)[C@@H](NC(=O)[C@H](CCC(N)=O)NC(=O)C(C)C)[C@@H](C)OC1=O)C2=O (stereo partly shown) [example 33]	4.5 nM	35 nM	5 nM	–	–	–
CCCOC1CCC2NC(=O)C(CC(C)C)NC(=O)C(NC(=O)C(CCC(N)=O)NC(=O)C(C)C)C(C)OC(=O)C(C(C)CC)NC(=O)C(Cc3ccc(OCC(=O)OC(C)(C)C)cc3)N(C)C(=O)C(C(C)CC)N1C2=O (stereo not shown) [example 34]	4 nM	5 nM	–	–	–	–
CCC=CCOc1ccc(CC2C(=O)NC(C(C)CC)C(=O)OC(C)C(NC(=O)C(CCC(N)=O)NC(=O)C(C)C)C(=O)NC(CC(C)C)C(=O)NC3CCC(OCCC)N(C3=O)C(C(C)CC)C(=O)N2C)cc1 (stereo not shown) [example 35]	8.5 nM	3 nM	–	–	–	–
CCCOC1CCC2NC(=O)C(CC(C)C)NC(=O)C(NC(=O)C(CCC(N)=O)NC(=O)C(C)C)C(C)OC(=O)C(C(C)CC)NC(=O)C(Cc3ccc(OCC=CC(F)(F)F)cc3)N(C)C(=O)C(C(C)CC)N1C2=O (stereo not shown) [example 36]	8.5 nM	3.5 nM	–	–	–	–
CCCOC1CCC2NC(=O)C(CC(C)C)NC(=O)C(NC(=O)C(CCC(N)=O)NC(=O)C(C)C)C(C)OC(=O)C(C(C)CC)NC(=O)C(Cc3ccc(OC)cc3)N(C)C(=O)C(C(C)CC)N1C2=O (stereo not shown) [example 37]	4.5 nM	2.5 nM	–	–	–	–
CCCOC1CCC2NC(=O)C(CC(C)C)NC(=O)C(NC(=O)C(CCC(N)=O)NC(=O)C(C)C)C(C)OC(=O)C(C(C)CC)NC(=O)C(Cc3ccc(OCC=C(C)C)cc3)N(C)C(=O)C(C(C)CC)N1C2=O (stereo not shown) [example 38]	4 nM	1.5 nM	–	–	–	–
CCC(C)[C@@H]1NC(=O)[C@H](Cc2ccc(O)cc2)N(C)C(=O)[C@H](C(C)CC)NC(=O)[C@@H]2CC[C@H](O)N2C(=O)[C@H](CC(C)C)NC(=O)[C@@H](NC(=O)[C@H](CCC(N)=O)NC(=O)C(C)C)[C@@H](C)OC1=O (stereo partly shown) [example 46] (Isobutyryl-QTL[X1][Ile(3ξ)][NMeY][Ile(3ξ)]; ester 2-C)	–	–	–	10 nM	100 nM	–
CCC(C)[C@@H]1NC(=O)[C@H](Cc2ccc(O)cc2)N(C)C(=O)[C@H](C(C)CC)N2C(=O)C(CC[C@@H]2O)NC(=O)[C@H](CC(C)C)NC(=O)[C@@H](NC(=O)[C@H](CCC(=O)O)NC(=O)C(C)C)[C@@H](C)OC1=O (stereo partly shown) [example 47]	–	–	–	100 nM	10 nM	–
CCC(C)C(=O)N[C@@H](CCC(N)=O)C(=O)N[C@@H]1C(=O)N[C@@H](CC(C)C)C(=O)NC2CC[C@H](O)N(C2=O)[C@@H](C(C)CC)C(=O)N(C)[C@@H](Cc2ccc(O)cc2)C(=O)N[C@@H](C(C)CC)C(=O)O[C@@H]1C (stereo partly shown) [formula III]	–	–	–	0.4 nM	10 nM	0.4 nM
CCC(C)C(=O)N[C@@H](CCC(N)=O)C(=O)N[C@@H]1C(=O)N[C@@H](CC(C)C)C(=O)N[C@H]2CC=CN(C2=O)[C@H](C(C)CC)C(=O)N(C)[C@@H](Cc2ccc(O)cc2)C(=O)N[C@@H](C(C)CC)C(=O)O[C@@H]1C (stereo partly shown) [formula IV]	–	–	–	5 nM	70 nM	–
CCC(C)[C@@H]1NC(=O)[C@H](Cc2ccc(O)cc2)N(C)C(=O)[C@@H](C(C)CC)N2C=CC[C@H](NC(=O)[C@H](CC(C)C)NC(=O)[C@@H](NC(=O)[C@H](CCC(N)=O)NC(=O)C(C)C)[C@@H](C)OC1=O)C2=O (stereo partly shown) [formula V]	–	–	–	6 nM	60 nM	–
